Measurements from patent publication US20240247080A1, “GLP1/GIP/NPY2 RECEPTOR TRIPLE AGONISTS” (Boehringer Ingelheim International GmbH, priority 2022, published 2024).
Like-named read-outs stand apart in the source and are kept apart here. Starred links: 1 amine or outer side, 2 acyl side, 3 side chain; linkers in the order of their positions; H or OH if unused. Positions of bridges follow the written chain, without caps; N, C: chain ends. Non-standard residues stand in square brackets, D forms with d. Groups on a side chain read outwards from the residue. Chains are numbered I, II in the order given. No end group written: not given here. *: point of attachment. C20 diacid = O=C(O)CCCCCCCCCCCCCCCCCCC(=O)*; C18 diacid = O=C(O)CCCCCCCCCCCCCCCCC(=O)*; γGlu = O=C(O)[C@H](CCC(=O)[*:2])N[*:1]; εLys = N[C@@H](CCCCN[*:1])C(=O)[*:2]; AEEA = NCCOCCOCC(=O)O; Aib = CC(C)(N)C(=O)O; Ahx = NCCCCCC(=O)O

How the values were obtained:
Assay type in all cases: cell-based
Conditions in all cases: CreLuc reporter gene assay
[1] = target: T1, hGIPR (Homo sapiens, UniProt P48546); assay: hGIPR CreLuc reporter gene assay in 0.5% and 100% plasma
T1 construct: expressed in transfected cells; host or cells: CHO cells carrying a CRE-luciferase reporter gene
T1 sequence (P48546 22-466): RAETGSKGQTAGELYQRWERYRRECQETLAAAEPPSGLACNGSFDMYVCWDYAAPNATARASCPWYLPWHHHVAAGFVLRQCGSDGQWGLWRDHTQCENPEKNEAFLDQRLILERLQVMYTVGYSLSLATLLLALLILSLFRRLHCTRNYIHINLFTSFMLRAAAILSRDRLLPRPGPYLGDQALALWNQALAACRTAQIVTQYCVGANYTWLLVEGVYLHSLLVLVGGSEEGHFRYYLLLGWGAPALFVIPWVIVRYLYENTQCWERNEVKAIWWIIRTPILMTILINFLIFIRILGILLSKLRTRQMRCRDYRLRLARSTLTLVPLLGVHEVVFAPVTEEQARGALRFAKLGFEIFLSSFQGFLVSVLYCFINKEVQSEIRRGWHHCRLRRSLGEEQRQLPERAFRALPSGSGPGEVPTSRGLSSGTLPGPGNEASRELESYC
How it was run: (§1)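 HEK-293 cells co-expressing GLP-1 or NPY2 receptor and CHO cells expressing GIP receptor, each carrying a CRE-driven luciferase reporter, were stimulated with peptides for 4 hours at 37 °C. Luminescence was read after Bright-Glo addition. EC50 came from 8-point, four-decade curves fitted by variable-slope non-linear regression.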

[2] = target: T2, hGLP1R (Homo sapiens, UniProt P43220); assay: hGLP1R CreLuc reporter gene assay in 0.5% and 100% plasma
T2 construct: expressed in transfected cells; host or cells: HEK-293 cells carrying a CRE-luciferase reporter gene
T2 sequence (P43220 24-463): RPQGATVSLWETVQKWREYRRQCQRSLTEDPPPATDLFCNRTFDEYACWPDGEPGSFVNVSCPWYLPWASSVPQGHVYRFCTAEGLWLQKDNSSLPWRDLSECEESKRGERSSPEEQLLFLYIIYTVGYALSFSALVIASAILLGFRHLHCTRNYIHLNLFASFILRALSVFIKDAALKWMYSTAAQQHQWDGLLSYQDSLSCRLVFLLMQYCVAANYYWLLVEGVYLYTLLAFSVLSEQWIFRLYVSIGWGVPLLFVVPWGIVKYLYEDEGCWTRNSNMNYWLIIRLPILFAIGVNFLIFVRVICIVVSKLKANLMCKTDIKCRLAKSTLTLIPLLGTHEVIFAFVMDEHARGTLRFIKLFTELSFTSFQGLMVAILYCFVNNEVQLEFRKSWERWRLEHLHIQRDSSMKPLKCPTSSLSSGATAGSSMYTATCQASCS
How it was run: as §1

[3] = target: T3, hNPY2R (Homo sapiens, UniProt P49146); assay: hNPY2R CreLuc reporter gene assay in 0.5% and 100% plasma
T3 construct: expressed in transfected cells; host or cells: HEK-293 cells carrying a CRE-luciferase reporter gene
T3 sequence (P49146 1-381): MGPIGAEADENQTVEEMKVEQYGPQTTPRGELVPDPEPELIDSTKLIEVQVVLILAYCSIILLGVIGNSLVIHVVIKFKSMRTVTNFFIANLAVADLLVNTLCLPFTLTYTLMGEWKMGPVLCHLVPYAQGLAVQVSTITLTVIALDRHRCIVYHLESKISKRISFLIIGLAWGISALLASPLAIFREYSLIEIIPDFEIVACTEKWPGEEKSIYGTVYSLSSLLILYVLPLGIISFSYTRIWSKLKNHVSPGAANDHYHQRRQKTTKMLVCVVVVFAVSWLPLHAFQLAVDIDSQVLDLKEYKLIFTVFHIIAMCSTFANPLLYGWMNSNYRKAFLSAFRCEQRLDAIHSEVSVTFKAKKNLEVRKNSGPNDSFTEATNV
How it was run: as §1

[4] = 0.5% human plasma, read-out: hGIPR 0.5% hP
[5] = 100% human plasma, read-out: hGIPR 100% hP
[6] = 0.5% human plasma, read-out: hGLP1R 0.5% hP
[7] = 0.5% human plasma, read-out: hNPY2R 0.5% hP
[8] = 100% human plasma, read-out: hGLP1R 100% hP
[9] = 100% human plasma, read-out: hNPY2R 100% hP

H-Y[Aib]EGTFTSDYSI[Aib]LEKQAE[Aib]AFVQWLIK([εLys-γGlu-γGlu-γGlu-γGlu-γGlu-C18 diacid])GGPSEGASLRHYYNWLTRQRY-NH2 [Compound 138, Y-Aib-E-G-T-F-T-S-D-Y-S-I-Aib-L-E-K-Q-A-E-Aib-A-F-V-Q-W-L-I-K(1,3)-GGPSEGASLRHYYNWLTRQRY-NH2.C18DA-gGlu-gGlu-gGlu-gGlu-gGlu-eLys(1,2)]
EC50 [1, 4]: 0.13 nM | EC50 [1, 5]: 0.81 nM | EC50 [2, 6]: 0.19 nM | EC50 [3, 7]: 18.3 nM

H-Y[Aib]EGTFTSDYSI[Aib]LEKQAQ[Aib]AFVEWLIK([Glu-Glu-Glu-Glu-C18 diacid])GGPSEGASLRHYYNWLTRQRY-NH2 [Compound 291, Y-Aib-E-G-T-F-T-S-D-Y-S-I-Aib-L-E-K-Q-A-Q-Aib-A-F-V-E-W-L-I-K(1,3)-GGPSEGASLRHYYNWLTRQRY-NH2.C18DA-E-E-E-E(1,2)]
EC50 [1, 4]: 0.18 nM | EC50 [1, 5]: 0.7 nM | EC50 [2, 6]: 0.1 nM | EC50 [3, 7]: 14.3 nM

H-Y[Aib]EGTFTSDYSI[Aib]LEKQAQ[Aib]AFVEWLIK([εLys-γGlu-γGlu-γGlu-γGlu-γGlu-γGlu-C20 diacid])GGPSSGASLRHYINWLTRQRY-NH2 [Compound 106, Y-Aib-E-G-T-F-T-S-D-Y-S-I-Aib-L-E-K-Q-A-Q-Aib-A-F-V-E-W-L-I-K(1,3)-GGPSSGASLRHYINWLTRQRY-NH2.C20DA-gGlu-gGlu-gGlu-gGlu-gGlu-gGlu-eLys(1,2)]
EC50 [1, 4]: 0.26 nM | EC50 [2, 6]: 0.14 nM | EC50 [3, 7]: 20.5 nM

H-Y[Aib]EGTFTSDYSI[Aib]LEKQAQ[Aib]AFVQWLIK([AEEA-AEEA-γGlu-γGlu-γGlu-γGlu-C18 diacid])GGPSEGASLRHYYNWLTRQRY-NH2 [Compound 270, Y-Aib-E-G-T-F-T-S-D-Y-S-I-Aib-L-E-K-Q-A-Q-Aib-A-F-V-Q-W-L-I-K(1,3)-GGPSEGASLRHYYNWLTRQRY-NH2.C18DA-gGlu-gGlu-gGlu-gGlu-OEG-OEG(1,2)]
EC50 [1, 4]: 0.12 nM | EC50 [1, 5]: 0.71 nM | EC50 [2, 6]: 0.07 nM | EC50 [2, 8]: 1.69 nM | EC50 [3, 9]: 21.1 nM

H-Y[Aib]EGTFTSDYSI[Aib]LEKQAQ[Aib]EFVQWLIK([εLys-γGlu-γGlu-γGlu-γGlu-γGlu-γGlu-γGlu-C20 diacid])GGPSSGASLRHYYNWLTRQRY-NH2 [Compound 43, Y-Aib-E-G-T-F-T-S-D-Y-S-I-Aib-L-E-K-Q-A-Q-Aib-E-F-V-Q-W-L-I-K(1,3)-GGPSSGASLRHYYNWLTRQRY-NH2.C20DA-gGlu-gGlu-gGlu-gGlu-gGlu-gGlu-gGlu-eLys(1,2)]
EC50 [1, 4]: 0.64 nM | EC50 [1, 5]: 1.97 nM | EC50 [2, 6]: 0.41 nM | EC50 [3, 7]: 13.1 nM | EC50 [3, 9]: 21.1 nM

Y[Aib]EGTFTSDYSI[Aib]LEKQAQ[Aib]AFVEWLIK([εLys-γGlu-γGlu-γGlu-γGlu-γGlu-C20 diacid])GGPESPASLRHYYNWLTRQRY-NH2 [Compound 70, Y-Aib-E-G-T-F-T-S-D-Y-S-I-Aib-L-E-K-Q-A-Q-Aib-A-F-V-E-W-L-I-K(1,3)-GGPESPASLRHYYNWLTRQRY-NH2.C20DA-gGlu-gGlu-gGlu-gGlu-gGlu-eLys(1,2)]
EC50 [1, 4]: 0.28 nM | EC50 [1, 5]: 2.62 nM | EC50 [2, 6]: 0.3 nM | EC50 [3, 7]: 16.2 nM

H-Y[Aib]EGTFTSDYSI[Aib]LEKQAQ[Aib]AFVEWLIK([εLys-γGlu-γGlu-γGlu-γGlu-γGlu-γGlu-C20 diacid])GGPSSGALLRHYYNWLTRQRY-NH2 [Compound 197, Y-Aib-E-G-T-F-T-S-D-Y-S-I-Aib-L-E-K-Q-A-Q-Aib-A-F-V-E-W-L-I-K(1,3)-GGPSSGALLRHYYNWLTRQRY-NH2.C20DA-gGlu-gGlu-gGlu-gGlu-gGlu-gGlu-eLys(1,2)]
EC50 [1, 4]: 0.43 nM | EC50 [2, 6]: 0.31 nM | EC50 [3, 7]: 42.6 nM | EC50 [3, 9]: 157 nM

H-Y[Aib]EGTFTSDYSI[Aib]LEKQAQ[Aib]AFVQWLIK([γGlu-γGlu-γGlu-γGlu-γGlu-C18 diacid])GGPESGASLRHYYNWLTRQRY-NH2 [Compound 53, Y-Aib-E-G-T-F-T-S-D-Y-S-I-Aib-L-E-K-Q-A-Q-Aib-A-F-V-Q-W-L-I-K(1,3)-GGPESGASLRHYYNWLTRQRY-NH2.C18DA-gGlu-gGlu-gGlu-gGlu-gGlu(1,2)]
EC50 [1, 4]: 0.13 nM | EC50 [1, 5]: 1.38 nM | EC50 [2, 6]: 0.09 nM | EC50 [3, 7]: 13.2 nM | EC50 [3, 9]: 50.6 nM

H-Y[Aib]EGTFTSDYSI[Aib]LEKQAQ[Aib]AFVEWLIK([Ahx-γGlu-γGlu-γGlu-γGlu-γGlu-γGlu-C18 diacid])GGPSEGASLRHYYNWLTRQRY-NH2 [Compound 303, Y-Aib-E-G-T-F-T-S-D-Y-S-I-Aib-L-E-K-Q-A-Q-Aib-A-F-V-E-W-L-I-K(1,3)-GGPSEGASLRHYYNWLTRQRY-NH2.C18DA-gGlu-gGlu-gGlu-gGlu-gGlu-gGlu-AHX(1,2)]
EC50 [1, 4]: 0.36 nM | EC50 [2, 6]: 0.2 nM | EC50 [3, 9]: 122 nM

H-Y[Aib]EGTFTSDYSI[Aib]LEKQAQ[Aib]AFVEWLIK([γGlu-γGlu-γGlu-γGlu-γGlu-C18 diacid])GGPSEGASLRHYYNWLTRQRY-NH2 [Compound 292, Y-Aib-E-G-T-F-T-S-D-Y-S-I-Aib-L-E-K-Q-A-Q-Aib-A-F-V-E-W-L-I-K(1,3)-GGPSEGASLRHYYNWLTRQRY-NH2.C18DA-gGlu-gGlu-gGlu-gGlu-gGlu(1,2)]
EC50 [1, 4]: 0.16 nM | EC50 [2, 6]: 0.13 nM | EC50 [3, 7]: 19.9 nM

H-Y[Aib]EGTFTSDYSI[Aib]LEKQAQ[Aib]AFVQWLIK([εLys-γGlu-γGlu-γGlu-γGlu-γGlu-C18 diacid])GGPESGASLRHYYNWLTRQRY-NH2 [Compound 60, Y-Aib-E-G-T-F-T-S-D-Y-S-I-Aib-L-E-K-Q-A-Q-Aib-A-F-V-Q-W-L-I-K(1,3)-GGPESGASLRHYYNWLTRQRY-NH2.C18DA-gGlu-gGlu-gGlu-gGlu-gGlu-eLys(1,2)]
EC50 [1, 4]: 0.33 nM | EC50 [1, 5]: 0.35 nM | EC50 [2, 6]: 0.08 nM | EC50 [2, 8]: 1.69 nM | EC50 [3, 9]: 23.1 nM

H-Y[Aib]EGTFTSDYSI[Aib]LEKQAQ[Aib]AFVEWLIK([AEEA-AEEA-γGlu-γGlu-γGlu-γGlu-C18 diacid])GGPSEPASLRHYYNWLTRQRY-NH2 [Compound 256, Y-Aib-E-G-T-F-T-S-D-Y-S-I-Aib-L-E-K-Q-A-Q-Aib-A-F-V-E-W-L-I-K(1,3)-GGPSEPASLRHYYNWLTRQRY-NH2.C18DA-gGlu-gGlu-gGlu-gGlu-OEG-OEG(1,2)]
EC50 [1, 4]: 0.23 nM | EC50 [1, 5]: 1.56 nM | EC50 [2, 6]: 0.18 nM | EC50 [3, 7]: 10.9 nM

H-Y[Aib]EGTFTSDYSI[Aib]LEKQAQ[Aib]AFVEWLIK([AEEA-AEEA-γGlu-γGlu-γGlu-γGlu-C18 diacid])GGPEEPASLRHYYNWLTRQRY-NH2 [Compound 161, Y-Aib-E-G-T-F-T-S-D-Y-S-I-Aib-L-E-K-Q-A-Q-Aib-A-F-V-E-W-L-I-K(1,3)-GGPEEPASLRHYYNWLTRQRY-NH2.C18DA-gGlu-gGlu-gGlu-gGlu-OEG-OEG(1,2)]
EC50 [1, 4]: 0.14 nM | EC50 [1, 5]: 1.23 nM | EC50 [2, 6]: 0.21 nM | EC50 [3, 7]: 11.5 nM | EC50 [3, 9]: 41.7 nM

H-Y[Aib]EGTFTSDYSI[Aib]LEAQAQ[Aib]AFVEWLIK([εLys-γGlu-γGlu-γGlu-γGlu-γGlu-γGlu-C20 diacid])GGPSSGASLRHYYNWLTRQRY-NH2 [Compound 102, Y-Aib-E-G-T-F-T-S-D-Y-S-I-Aib-L-E-A-Q-A-Q-Aib-A-F-V-E-W-L-I-K(1,3)-GGPSSGASLRHYYNWLTRQRY-NH2.C20DA-gGlu-gGlu-gGlu-gGlu-gGlu-gGlu-eLys(1,2)]
EC50 [1, 4]: 0.98 nM | EC50 [2, 6]: 0.33 nM | EC50 [3, 7]: 24.8 nM

I: H-Y[Aib]EGTFTSDYSI[Aib]LEKQAQ[Aib]AFVQWLIKGGPESGASLRHYYNWLTRQRY-NH2 / II: {C18 diacid}-EEEEE[εLys] (amide I:28-II:C) [Compound 63, Y-Aib-E-G-T-F-T-S-D-Y-S-I-Aib-L-E-K-Q-A-Q-Aib-A-F-V-Q-W-L-I-K(1,3)-GGPESGASLRHYYNWLTRQRY-NH2.C18DA-E-E-E-E-E-eLys(1,2)]
EC50 [1, 4]: 0.13 nM | EC50 [1, 5]: 0.89 nM | EC50 [2, 6]: 0.08 nM | EC50 [3, 7]: 15.2 nM
